Laboratory results reported in ChEMBL document CHEMBL3397019, “Enhancement of antioxidant effects of naringin after atmospheric pressure dielectric barrier discharge plasma treatment” (Bioorg Med Chem Lett, 2015).

Experiments:
Assay type in all cases: physicochemical
[1] = Antioxidant activity assessed as ONOO- scavenging activity
[2] = Antioxidant activity assessed as DPPH free radical scavenging activity
[3] = Antioxidant activity assessed as ONOO- scavenging activity using plasma treated compound
[4] = Antioxidant activity assessed as DPPH free radical scavenging activity using plasma treated compound

SMILES: C[C@H]1O[C@@H](O[C@H]2[C@H](Oc3cc(O)c4c(c3)O[C@@H](c3ccc(O)cc3)CC4=O)O[C@H](CO)[C@@H](O)[C@@H]2O)[C@H](O)[C@@H](O)[C@@H]1O
- IC50 [1]: > 300 µM
- IC50 [2]: 93.8 µM

SMILES: COCO[C@H]1[C@H](O)[C@@H](O[C@@H]2O[C@H](C)[C@@H](O)[C@H](O)[C@H]2O)[C@H](Oc2cc(O)c3c(c2)O[C@@H](c2ccc(O)cc2)CC3=O)O[C@@H]1CO
- IC50 [1]: 4.1 µM
- IC50 [2]: 57.3 µM

SMILES: C[C@H]1O[C@@H](O[C@H]2[C@H](Oc3cc(O)c4c(c3)O[C@H](c3ccc(O)cc3)CC4=O)O[C@H](CO)[C@@H](O)[C@@H]2O)[C@H](O)[C@@H](O)[C@@H]1O
- IC50 [1]: > 300 µM
- IC50 [2]: > 300 µM

SMILES: C[C@@H]1O[C@@H](O[C@H]2[C@H](Oc3cc(O)c4c(c3)O[C@H](c3ccc(O)cc3)CC4=O)O[C@H](CO)[C@@H](O)[C@@H]2O)[C@H](O)[C@H](O)[C@H]1O [NARINGIN]
- IC50 [3]: 15.6 µM
- IC50 [4]: 110 µM

SMILES: COCO[C@H]1[C@H](O)[C@@H](O)[C@H](O[C@H]2[C@H](Oc3cc(O)c4c(c3)O[C@H](c3ccc(O)cc3)CC4=O)O[C@H](CO)[C@@H](O)[C@@H]2O)O[C@@H]1C
- IC50 [1]: 256 µM
- IC50 [2]: 148 µM

SMILES: CC(C)(S)[C@H](N)C(=O)O
- IC50 [1]: 5.2 µM

SMILES: Oc1cc(O)c2c(c1)O[C@H](c1ccc(O)c(O)c1)[C@@H](O)C2 [CIANIDANOL]
- IC50 [2]: 23.9 µM
